A melting point compilation (Tetko et al.; mined from patent text by program, amines drawn as free bases though some values may be those of a salt)

melting point [°C] | Compound
149 to 150 | Cn1cc(-c2cccc(N3Cc4cc(C(C)(C)C)ccc4C3=O)c2CO)nc(Nc2cccnc2)c1=O
224 to 226 | CC(C)Cn1c(CNC(=O)OC(C)(C)C)c(-c2cccs2)c2cc(C(=O)O)ccc2c1=O
170 to 172 | CN1CCN(c2ccc(S(=O)(=O)Oc3ccc(F)cc3)cc2)C1=O
173 to 177 | CCC(=O)NS(=O)(=O)c1ccc2c3c(cc([N+](=O)[O-])c2c1)NCC3CCl (stereo not drawn)
185 to 186 | NC(=O)CNC(=O)c1ccnc(-c2cccc3cc(COc4cccc(C(F)(F)F)c4)sc23)c1
141 to 143 | CC(C)(C)C1=CCC(C(=O)O)CC1 (stereo not drawn)
> 260 | CN1Cc2c(C(=O)NN)ncn2-c2ccsc2C1=O
155 to 157 | O=C1C2=C(CCCC2)C(=O)N1c1cc(O)c(Cl)cc1Cl
193 to 195 | CON=C(C)CC(C)(C)Cn1c(C)nc2c(N)nc3ccccc3c21
141 to 142 | Cn1c(CC(=O)O)ccc1C(=O)c1cccs1
231 to 233 | COc1cc(OCC(=O)N2CCOCC2)c(C=CC(=O)c2ccc(C(=O)O)cc2)cc1-c1cccs1
165 to 166 | Cc1c(C)c2c(c(C)c1NC(=O)C(O)C(C)(C)C)C(c1ccc(C(C)C)cc1)CO2 (stereo not drawn)
61 to 63 | COc1csc(C)c1N
131 to 132 | CC1CCCCC1N(Cc1ccc(C(=O)NC(C)(C)C(=O)O)cc1)S(=O)(=O)c1ccc(C(F)(F)F)nc1 (stereo not drawn)
70 to 72 | CCCCCCOc1ccc(CCC(=O)O)cc1
162 to 163 | COc1cc(COc2nn(-c3ccccc3)cc2C=O)ccc1OCc1coc(-c2ccco2)n1
114 to 115 | COc1ccc(-c2cc3c(OC)cc(OC)cc3nc2OCC(=O)OCc2ccccc2)cc1
> 300 | O=C(O)c1ccc(-c2c[nH]c(=O)cn2)cc1
158 to 160 | COC(=O)[C@H](CO)NC(=O)c1ncn2c1CN(C)C(=O)c1sccc1-2
97 to 98 | CN1CCN(CC/C=C/c2ccc3ncc(C#N)c(Nc4ccc(Cl)cc4Cl)c3c2)CC1
207 to 210 | CC1(C)CCC(C)(C)c2cc(Oc3ccc(C=C(O)C(=O)O)cc3)ccc21
116 to 117 | CC(CSC(=O)c1ccccc1)C(=O)N1c2ccccc2CC1C(=O)O (stereo not drawn)
146 to 147 | N#Cc1cc2n(c1)CCc1ccccc1C2=O
108 to 110 | c1ccc2c(Sc3cccc4ccccc34)cccc2c1

melting point [°C] | Compound
111 to 112 | C=CCC1(C(=O)NCC)c2ccccc2Oc2ccccc21
142 | COc1cccc(OC)c1-c1ccc(C[C@H](NC(=O)c2c(Cl)cc(-c3nccs3)cc2Cl)C(=O)O)cc1
178 to 179 | CC(=O)NC(C(=O)c1ccccc1N)[N+](=O)[O-] (stereo not drawn)
116 | Clc1ccc2cc(Br)sc2n1
138 to 140 | CCCN(c1ccc(O)c(Cl)c1)S(=O)(=O)c1ccc(O)cc1
170 | Cc1ccc(CCN2CCN(c3noc4ccccc34)CC2)c2c1C(C)(C)CC(=O)N2
106 | COc1cccc(N(C)C(=O)c2cnc(Br)s2)c1
130 to 140 | COc1cc(C(=O)N2CCC(CCN3CCC(C(=O)c4nc5ccccc5[nH]4)CC3)(c3ccc(Cl)c(Cl)c3)C2)cc(OC)c1OC (stereo not drawn)
164 to 166 | CN1C2CCC1CC(NC(=O)c1cccc3nc(-c4ccccc4)oc13)C2 (stereo not drawn)
221 to 223 | CN(C)CCC1CSc2c(C(=O)O)c(=O)c3cc(F)c(N4CCN(C)CC4)cc3n21 (stereo not drawn)
268 to 270 | CC1(CN)CN(c2c(F)cc3c(=O)c(C(=O)O)cn(C4CC4)c3c2F)C1
109 to 111 | Cc1cc(=O)n(Cc2ccccc2)c2ccccc12
138 to 140 | CCOC(=O)C1=C(C#N)Nc2ccnc(OC(C)C)c2C1c1ccccc1C(F)(F)F (stereo not drawn)
135 to 137 | CSc1nc(C)c(CCCl)c(=O)n1C
125 to 128 | CCOC(=O)C(=CNc1cccc(C(F)(F)F)n1)C(=O)OCC
77 to 78 | O=C(OC1CCN(Cc2ccccc2)CC1)c1ccc(I)cc1
209 to 211 | N#Cc1c[nH]c2ncnc(N3CCCCC3)c12
160 to 161 | O=C(Oc1ccccc1)N1CCC(S(=O)(=O)c2ccccc2F)CC1
236 to 239 | FC(F)(F)c1ccc2c(c1)Sc1ccccc1NC2=S
208 to 210 | O=C(Nc1cccc(-c2ccnc3c(C(=O)c4cccs4)cnn23)c1)c1cc(C(F)(F)F)ccc1C(F)(F)F
226 to 227 | O=C(O)C1=Cc2ccc(Cl)cc2SC1C(F)(F)F (stereo not drawn)
120 to 122 | CCCCc1nc(Cl)c(C(=O)N2CCCC2)n1Cc1ccc2oc(-c3ccccc3-c3nnn[nH]3)c(Br)c2c1
> 250 | O=Cc1c[nH]c2c1ccc1c3cc(F)ccc3[nH]c12
254 to 256 | Cn1cc(-c2ncc(-c3ccc4cc(OCc5nnn[nH]5)ccc4c3)o2)c2ccccc21

melting point [°C] | Compound
73 | CCCCOc1cc(-n2c(=O)cc(C(F)(F)F)n(C)c2=O)c(F)cc1Br
114 to 115 | O=C1CCC(=O)N1Nc1c(Cl)cc(Cl)cc1Cl
160 to 162 | Cc1cc(SC2=C(O)C[C@@](CCc3ccccc3)(C(C)C)OC2=O)c(C(C)C)c2sc(N)nc12
140 to 141 | CC[C@H](C)C(OCc1ccccc1)[C@H]1[C@H]([N+](=O)[O-])[C@H](c2ccccc2)N[C@@H]1C(=O)NCCC(=O)O (stereo partly drawn)
61 to 63 | CCOC(=O)CN1CCC(CNc2ccc(Cl)cc2C(=O)Nc2ccc(Cl)cn2)CC1
165 to 167 | NC(=O)N(O)CCNC(=O)CCc1ccccc1
189 to 190 | Cc1c(Cl)ccc2c3c([nH]c12)[C@@]1(CC(=O)O)CC[C@H]1CC3 (relative stereo)
74 to 75 | CCOC(=O)CCCCN(C(=O)c1ccc(Cl)cc1)c1cccc2ccccc12
136 to 137 | CCS(=O)CCNC(=O)C1=C(C(=O)Nc2ccc(Cl)cc2F)CCCC1 (stereo not drawn)
155 to 158 | CCOCCOc1ccc(-c2nc(-c3ccc(OC)cc3)nc(-c3ccc(OCCOCC)cc3O)n2)c(O)c1
118 to 119 | Cn1c(=O)oc2cc([N+](=O)[O-])cc(F)c21
168 to 169 | CC(C)(C)CC(C)(C)NC(=O)Nc1ccccc1CCc1cc(C(C)(C)C)c(O)c(C(C)(C)C)c1
278 to 280 | CC1=C(Cn2ccnc2)CCc2ccc(C(=O)O)cc21
79 to 85 | COc1cccc2c1CC(C(=O)NCCOc1ccc(C(=O)OC(C)(C)C)cc1)N2S(=O)(=O)c1ccc(-c2ccc(F)cc2Cl)cc1 (stereo not drawn)
79 to 81 | COC(=O)c1ccc(OC)c(Nc2ccccc2)c1
95 | CC1(O)CSC(=S)N1c1ccc(Cl)cn1 (stereo not drawn)
97 to 99 | CCCOC(=O)C1=C(C)N(C)C(C)=C(C(=O)OCCC)C1c1ccc(Br)cc1
106 to 109 | CCOC(=O)C1(C(=O)OCC)C(CC)CC(O)N1C(C)=O (stereo not drawn)
56 to 58 | BrCc1ccccc1Oc1ccc(Br)cc1
233 | CC(C)(CO)NS(=O)(=O)c1cc(NC(=O)c2cnn3c(C(F)F)cc(-c4ccc(C(F)(F)F)cc4)nc23)c(Cl)s1
82 to 84 | COc1c(C)c(C)c(OC)c(CC[C@](C)(O)CO)c1C
227 | O=C(O)C1(CSc2ccc3oc(-c4ccncc4)cc3c2)CCOCC1
124 to 126 | CC(c1ccc(CCNC(=O)c2ccc(Br)cc2)cc1)N1CCCC1 (stereo not drawn)
130 to 133 | CC(=O)SCCC(=O)NC(Cc1cn(C=O)c2ccccc12)C(=O)O (racemic)

melting point [°C] | Compound
123 to 124 | Cn1c(C(F)(F)F)ccc(-c2ccc(F)cc2F)c1=O
123 to 126 | O=C1COc2cc(NC(=O)C(=O)N3CCC(Cc4ccccc4)CC3)ccc2N1
109 to 110 | O[C@@H](CNC1CN(C(c2ccccc2)c2ccccc2)C1)COc1ccc(OCc2ccccc2)cc1
141 to 143 | O=c1oc2cc(O)c(F)cc2s1
86 to 87 | COC(=O)c1ccc(/C=C(\C)c2ccc3c(c2)SC(C)(C)S3)cc1
192 to 194 | COc1cc2cc(C=Cc3ccccc3Cl)[nH]c2cc1OCc1ccccc1
192 to 193 | COc1ccc2c3c([nH]c2c1)CC(NC(C)=O)CC3 (stereo not drawn)
92.5 to 94 | CCOC(=O)c1sc2ccc(Cl)cc2c1C
100 | Cc1ccc2cccc(OCc3c(Cl)ccc(S(=O)(=O)N(CCCCCCCC(=O)O)Cc4ccccc4)c3Cl)c2n1
142 to 144 | CC(CNc1ccc(C(=O)O)cc1)Oc1cccc2ccccc12 (stereo not drawn)
98 to 100 | O=C1Cc2cc(F)ccc2Sc2ccccc21
128 to 129 | CSC(C)(C)C(=O)N[C@@H](CSSC[C@H](NC(=O)C(C)(C)SC)C(=O)O)C(=O)O
154 to 156 | CC(NC(=O)OCc1ccccc1)C(=O)NC1C(C(=O)O)OC(n2cnc3c(NC(=O)c4ccccc4)ncnc32)C1O (stereo not drawn)
162 to 164 | CC1C(=O)N(c2ccccc2O)Sc2ccccc21 (stereo not drawn)
92 to 93 | O=C(O)/C=C(\CC(O)CCCCCCc1ccc(Cl)cc1Cl)C(=O)O (stereo not drawn)
67 | Clc1cnc(SCI)nc1
74 to 76 | O=C1OCCN1c1ccc(OC(F)C(F)(F)F)cc1 (stereo not drawn)
108 to 109 | COC(=O)[C@H](CCCCNC(=O)OC(C)(C)C)NC(=O)c1ccccc1
197 to 200 | CNC(=S)N1CCN(c2cnccn2)CC1
179 to 180 | CC1(c2ccccc2)OC(=O)Nc2ccc(-c3cccc(Cl)c3)cc21 (stereo not drawn)
50 to 52 | CCOC(=O)c1cc(CC)sc1Nc1ccccc1N
184 to 186 | Cc1cccc(C(=O)O)c1N(C)S(=O)(=O)c1ccc(OCCCNC(=O)c2cc3ccccc3o2)cc1
142 to 145 | CCOC(=O)c1csc(-c2cccc([N+](=O)[O-])c2)n1
144 | CC(=O)Nc1ccc(-c2cc(C(=O)c3cccnc3)sc2N2CCOCC2)cc1

Compound | melting point [°C]
NC(=O)NCc1ccc(CN(CC(=O)O)C(=O)[C@@H](CCCNC(N)=N[N+](=O)[O-])NC(=O)C(c2ccccc2)c2ccccc2)cc1 | 78 to 81
Cc1nc[nH]c1CSCCNC(=N)NCCSCc1nccs1 | 149 to 151
